Details: Liquid

CCC(=O)C(C)=O [2,3-pentanedione]
Details	vapor or sublimation pressure [kPa]
331.84 K	15.37
338.38 K	20.36
343.73 K	25.35
348.13 K	30.35
352.15 K	35.34
355.74 K	40.33
358.85 K	45.32
361.89 K	50.21
364.69 K	55.21
367.09 K	60.2
369.44 K	65.19
371.61 K	70.18
373.8 K	75.27

CC(=O)C(C)=O [2,3-butanedione]
Details	vapor or sublimation pressure [kPa]
314.3 K	19.06
320.55 K	24.04
325.62 K	29.03
329.85 K	33.91
333.64 K	39
336.76 K	43.59
339.99 K	48.97
342.8 K	53.85
345.41 K	58.83
347.62 K	63.83
349.9 K	68.81
351.89 K	73.79

CC(C)=O [acetone]
Details	vapor or sublimation pressure [kPa]
297.67 K	30.23
301.25 K	35.22
307.33 K	45.21
310.08 K	50.4
312.52 K	55.29
314.76 K	60.29
316.8 K	65.08
318.77 K	70.07

— the NIST ThermoML archive (doi:10.1021/je7005924)
